Values quoted from earlier work, collected in patent EP4160208A1, “URINE SEDIMENT STAINING LIQUID” (TOYOBO CO., LTD., priority 2020, dated 2021).

Structure (SMILES)	pKa
NC(=O)CN(CC(=O)O)CC(=O)O [ADA]	6.80
O=S(=O)(O)CCN1CCN(CCO)CC1 [HEPES]	7.55
O=C(O)CNC(CO)(CO)CO [Tricine]	8.15

Further lines, results first:

pKa	Structure (SMILES)
7.15	O=S(=O)(O)CCN(CCO)CCO [BES]
7.50	O=S(=O)(O)CCNC(CO)(CO)CO [TES]
